The results in this text go back to patent US9328122B2, “7-substituted Hanfangichin B derivative, and preparation method and use thereof” (HANGZHOU BENSHENG PHARMACEUTICAL CO., LTD., priority 2012, dated 2016).

≈ marks a conversion by molar mass, not a printed value.

One assay relates to PANC-1 (pancreatic cancer) cells. Kind of assay: MTT cell growth inhibition, solid tumor cells. In kind it is cell-based, human. To be noted: relative to fangchinoline, Table 2. Summed up:
(§1)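 Exposure lasted 72 h, following 24 h growth of 6000 cells/well in DMEM high glucose containing 10% FBS at 37 °C in 5% CO2; endpoint was MTT-based viable cell concentration across tested compound concentrations.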
Take `COc1ccc2cc1Oc1ccc(cc1)C[C@H]1c3cc(c(OC)cc3CCN1C)Oc1c(OCC(O)CNCC3CC3)c(OC)cc3c1[C@H](C2)N(C)CC3` (some centres unmarked) [BS-FC-405]: the “anti-PANC-1 activity increase over fangchinoline” value is recorded as ~3 fold.

The subject of another assay is PC-3 (prostate cancer) cells. Kind of assay: MTT cell growth inhibition, solid tumor cells. The class given is cell-based, human. Particulars: Homo sapiens; PC-3, 72 h, MTT; read-out: IC50. The procedure, abridged:
as §1
For `COc1ccc2cc1Oc1ccc(cc1)C[C@H]1c3cc(c(OC)cc3CCN1C)Oc1c(OCC(O)CNCC3CC3)c(OC)cc3c1[C@H](C2)N(C)CC3` (some centres unmarked) [BS-FC-405], the concentration for half-maximal inhibition (IC50) came out at 2.53 µg/mL (≈ 3.44 µM).

The assay is the same for the next values; noted with them: Homo sapiens; PC-3, 72 h, MTT; read-out: IC90.
For the compound `COc1ccc2cc1Oc1ccc(cc1)C[C@H]1c3cc(c(OC)cc3CCN1C)Oc1c(OCC(O)CNCC3CC3)c(OC)cc3c1[C@H](C2)N(C)CC3` (some centres unmarked) [BS-FC-405], the concentration for an effect of 90% (IC90) worked out at 3.69 µg/mL (≈ 5.01 µM).

For the next assay, the system named is SK-OV-3 (ovarian cancer) cells. Kind of assay: MTT cell growth inhibition, solid tumor cells. In kind it is cell-based, human. Particulars: Homo sapiens; SK-OV-3, 72 h, MTT; read-out: IC50. The procedure, abridged: as §1
Consider `COc1ccc2cc1Oc1ccc(cc1)C[C@H]1c3cc(c(OC)cc3CCN1C)Oc1c(OCC(O)CNCC3CC3)c(OC)cc3c1[C@H](C2)N(C)CC3` (some centres unmarked) [BS-FC-405], for which the IC50 was determined as 1.54 µg/mL (≈ 2.09 µM).

The same assay, now with this note: Homo sapiens; SK-OV-3, 72 h, MTT; read-out: IC90.
Regarding `COc1ccc2cc1Oc1ccc(cc1)C[C@H]1c3cc(c(OC)cc3CCN1C)Oc1c(OCC(O)CNCC3CC3)c(OC)cc3c1[C@H](C2)N(C)CC3` (some centres unmarked) [BS-FC-405], the IC90 turned out to be 3.5 µg/mL (≈ 4.76 µM).

Another assay has as its system Becap-37 (human breast cancer) cells. Kind of assay: MTT cell growth inhibition, solid tumor cells. In kind it is cell-based. Particulars: Homo sapiens; Becap-37, 72 h, MTT; read-out: IC50. The procedure, abridged: as §1
`COc1ccc2cc1Oc1ccc(cc1)C[C@H]1c3cc(c(OC)cc3CCN1C)Oc1c(OCC(O)CNCC3CC3)c(OC)cc3c1[C@H](C2)N(C)CC3` (some centres unmarked) [BS-FC-405]: the IC50 was determined as 0.74 µg/mL (≈ 1.01 µM).

Still in this assay, the particulars now being: Homo sapiens; Becap-37, 72 h, MTT; read-out: IC90.
For `COc1ccc2cc1Oc1ccc(cc1)C[C@H]1c3cc(c(OC)cc3CCN1C)Oc1c(OCC(O)CNCC3CC3)c(OC)cc3c1[C@H](C2)N(C)CC3` (some centres unmarked) [BS-FC-405], the IC90 came to 1.88 µg/mL (≈ 2.55 µM).

Still in this assay, the particulars now being: relative to fangchinoline, Table 2.
For the compound `COc1ccc2cc1Oc1ccc(cc1)C[C@H]1c3cc(c(OC)cc3CCN1C)Oc1c(OCC(O)CNCC3CC3)c(OC)cc3c1[C@H](C2)N(C)CC3` (some centres unmarked) [BS-FC-405], the “anti-Becap37 activity increase over fangchinoline” value is listed as ~3 fold.

A further assay relates to Hela (human cervical cancer) cells. Kind of assay: MTT cell growth inhibition, solid tumor cells. In kind it is cell-based. To be noted: Homo sapiens; Hela, 72 h, MTT; read-out: IC50. Summed up:
as §1
As to `COc1ccc2cc1Oc1ccc(cc1)C[C@H]1c3cc(c(OC)cc3CCN1C)Oc1c(OCC(O)CNCC3CC3)c(OC)cc3c1[C@H](C2)N(C)CC3` (some centres unmarked) [BS-FC-405], the half-maximal inhibitory concentration (IC50) turned out to be 1.25 µg/mL (≈ 1.7 µM).

Staying with this assay, now noted: Homo sapiens; Hela, 72 h, MTT; read-out: IC90.
As to `COc1ccc2cc1Oc1ccc(cc1)C[C@H]1c3cc(c(OC)cc3CCN1C)Oc1c(OCC(O)CNCC3CC3)c(OC)cc3c1[C@H](C2)N(C)CC3` (some centres unmarked) [BS-FC-405], the IC90 came to 2 µg/mL (≈ 2.72 µM).

Another assay relates to Hep G2 (human liver cancer) cells. Kind of assay: MTT cell growth inhibition, solid tumor cells. To be noted: Homo sapiens, HepG2; Hep G2, 72 h, MTT; read-out: IC50. The class given is cell-based. Summed up:
as §1
As for `COc1ccc2cc1Oc1ccc(cc1)C[C@H]1c3cc(c(OC)cc3CCN1C)Oc1c(OCC(O)CNCC3CC3)c(OC)cc3c1[C@H](C2)N(C)CC3` (some centres unmarked) [BS-FC-405], the IC50 amounted to 0.71 µg/mL (≈ 0.965 µM).

Still in this assay, the particulars now being: Homo sapiens, HepG2; Hep G2, 72 h, MTT; read-out: IC90.
Regarding `COc1ccc2cc1Oc1ccc(cc1)C[C@H]1c3cc(c(OC)cc3CCN1C)Oc1c(OCC(O)CNCC3CC3)c(OC)cc3c1[C@H](C2)N(C)CC3` (some centres unmarked) [BS-FC-405], the IC90 is 1.7 µg/mL (≈ 2.31 µM).

The same assay, now with this note: relative to fangchinoline, Table 2.
With `COc1ccc2cc1Oc1ccc(cc1)C[C@H]1c3cc(c(OC)cc3CCN1C)Oc1c(OCC(O)CNCC3CC3)c(OC)cc3c1[C@H](C2)N(C)CC3` (some centres unmarked) [BS-FC-405], the “anti-Hep G2 activity increase over fangchinoline” value is recorded as ~3 fold.

The subject of another assay is MG-63 (osteosarcoma) cells. Kind of assay: MTT cell growth inhibition, solid tumor cells. The class given is cell-based. To be noted: Homo sapiens; MG-63, 72 h, MTT; read-out: IC50. Summed up: as §1
As for `COc1ccc2cc1Oc1ccc(cc1)C[C@H]1c3cc(c(OC)cc3CCN1C)Oc1c(OCC(O)CNCC3CC3)c(OC)cc3c1[C@H](C2)N(C)CC3` (some centres unmarked) [BS-FC-405], the IC50 was found to be 0.96 µg/mL (≈ 1.3 µM).

The assay is the same for the next values; noted with them: Homo sapiens; MG-63, 72 h, MTT; read-out: IC90.
In the case of `COc1ccc2cc1Oc1ccc(cc1)C[C@H]1c3cc(c(OC)cc3CCN1C)Oc1c(OCC(O)CNCC3CC3)c(OC)cc3c1[C@H](C2)N(C)CC3` (some centres unmarked) [BS-FC-405], the concentration for an effect of 90% (IC90) was found to be 1.7 µg/mL (≈ 2.31 µM).

Another assay deals with RKO (human colon adenocarcinoma) cells. Kind of assay: MTT cell growth inhibition, solid tumor cells. In kind it is cell-based. To be noted: Homo sapiens; RKO, 72 h, MTT; read-out: IC50. The procedure, abridged: as §1
Consider `COc1ccc2cc1Oc1ccc(cc1)C[C@H]1c3cc(c(OC)cc3CCN1C)Oc1c(OCC(O)CNCC3CC3)c(OC)cc3c1[C@H](C2)N(C)CC3` (some centres unmarked) [BS-FC-405], for which the IC50 turned out to be 0.46 µg/mL (≈ 0.625 µM).

Still in this assay, the particulars now being: Homo sapiens; RKO, 72 h, MTT; read-out: IC90.
Turning to `COc1ccc2cc1Oc1ccc(cc1)C[C@H]1c3cc(c(OC)cc3CCN1C)Oc1c(OCC(O)CNCC3CC3)c(OC)cc3c1[C@H](C2)N(C)CC3` (some centres unmarked) [BS-FC-405], the IC90 was determined as 0.92 µg/mL (≈ 1.25 µM).

The next assay concerns U87-MG (malignant glioma) cells. Kind of assay: MTT cell growth inhibition, solid tumor cells. In kind it is cell-based. To be noted: Homo sapiens, U-87 MG; U87-MG, 72 h, MTT; read-out: IC50. Summed up:
as §1
With `COc1ccc2cc1Oc1ccc(cc1)C[C@H]1c3cc(c(OC)cc3CCN1C)Oc1c(OCC(O)CNCC3CC3)c(OC)cc3c1[C@H](C2)N(C)CC3` (some centres unmarked) [BS-FC-405], the IC50 amounted to 0.7 µg/mL (≈ 0.951 µM).

Still in this assay, the particulars now being: Homo sapiens, U-87 MG; U87-MG, 72 h, MTT; read-out: IC90.
Take `COc1ccc2cc1Oc1ccc(cc1)C[C@H]1c3cc(c(OC)cc3CCN1C)Oc1c(OCC(O)CNCC3CC3)c(OC)cc3c1[C@H](C2)N(C)CC3` (some centres unmarked) [BS-FC-405]: the IC90 was determined as 1.41 µg/mL (≈ 1.92 µM).

The next assay relates to tumor. Kind of assay: Antitumor activity compared with fangchinoline, overall statement. In kind it is cell-based. To be noted: tumor type not specified.
`COc1ccc2cc1Oc1ccc(cc1)C[C@H]1c3cc(c(OC)cc3CCN1C)Oc1c(OCC(O)CNCC3CC3)c(OC)cc3c1[C@H](C2)N(C)CC3` (some centres unmarked) [BS-FC-405]: the “antitumor activity compared with that of fangchinoline” value is “significantly superior”.

What is called IC50 is the concentration at which inhibition is half-maximal. In general, IC90 refers to the concentration at which the effect reaches the 90% level.
